Experimental data published in paper PMC9322122, “Development of (4-Phenylamino)quinazoline Alkylthiourea Derivatives as Novel NF-κB Inhibitors” (Pharmaceuticals, 2022).
Read-outs that look alike come from different tables or passages of the source.

Columns and labels:
NF-κB [1] = assay: NF-κB luciferase reporter assay; assay type: cell-based; details: Homo sapiens, NF-κB-luciferase-transfected HEK293 cells, TNFα 50 ng/mL; for inhibition at 10 µM: mean ± SEM, n = 3, read-out: NF-κB Luciferase Activity Inh %
Protocol: NF-κB Luciferase Reporter Vector was purchased from Signosis (Santa Clara, CA, USA) and transfected into HEK-293 cells using FuGENE HD (Promega, Fitchburg, MA, USA) following the manufacturer’s protocol. The transfected cells were incubated in serum-free DMEM for 16 h and then treated with DMSO or indicated compounds. After 3 h, cells were treated with or without 50 ng/mL of Recombinant Human TNFα Protein (R&D systems, Minneapolis, MN, USA) for another 3 h. The protein lysates were analyzed using Steady-Glo® Luciferase Assay System (Promega, Fitchburg, MA, USA) and TECAN Infinite 200 pro (Männedorf, Switzerland).

[2] = Cell viability (WST-1), HEK293; assay type: cell-based; details: human, HEK293 cells, mean ± SEM, n = 3
Protocol: (§1) Cells were incubated with the WST-1 reagent (Thermo Fisher Scientific, Waltham, MA, USA) at 37 °C for 2 h. The cell viability was determined by spectrophotometer at 450 nm.

[3] = Cell viability (WST-1), A549; assay type: cell-based; details: human, A549 cells, mean ± SEM, n = 3
Protocol: as §1

NF-κB [4] = system: NF-κB; parameters: method as in PMID 28291344; details: cell-based activity reporter assay; cited from earlier work
IKKβ = details: read-out: cell-free IC50 IKKβ; cited from earlier work
IKKα = details: read-out: cell-free IC50 IKKα; cited from earlier work
IL-1β production = details: THP-1 macrophage model cell line; read-out: IC50 for suppression of IL-1β production; cited from earlier work
TNFα production [5] = details: THP-1 macrophage model cell line; read-out: IC50 for suppression of TNFα production; cited from earlier work
TNFα = details: cited from earlier work
EGFR kinase = target: EGFR kinase; parameters: method as in PMID 28291344; details: cell-free kinase assay at 100 µM ATP; cited from earlier work
TNFα production [6] = assay: TNFα production in LPS-activated dTHP-1 cells (ELISA); assay type: cell-based; details: Homo sapiens; for IC50: LPS-activated dTHP-1 cells, 24 h; for inhibition at 7.5 µM / inhibition at 15 µM: LPS 100 ng/mL for 24 h, dTHP-1 cells; for inhibition at 7.5 µM: read-out: TNFα Production Inh % (7.5 μM); for inhibition at 15 µM: read-out: TNFα Production Inh % (15 μM)
Protocol: (§2) The HEK-293 (ATCC Cat# CRL-1573, RRID:CVCL_0045) and human monocytic THP−1 cells (ATCC Cat# TIB-202, RRID:CVCL_0006) were, respectively, cultured in DMEM and RPMI 1640 media supplemented with 10% fetal bovine serum, 2 mM L-glutamine, and 1× Antibiotic-Antimycotic at 37 °C in a humidified incubator with 5% CO2. THP−1 cells were differentiated by 100 nM phorbol-12-myristate-13-acetate (PMA) for 4 h and then rested for 44 h as dTHP−1 cells.
(§3) The dTHP−1 cells were treated with indicated compounds for 3 h and then activated with or without 100 ng/mL lipopolysaccharide (LPS; E. coli 0111:B4) for another 24 h. The levels of human IL-6 and TNFα in supernatants were measured by DuoSet® ELISA Development System (R&D systems, Minneapolis, MN, USA) according to the manufacturer’s protocol.

IL-6 production = IL-6 production in LPS-activated dTHP-1 cells (ELISA); assay type: cell-based, human; details: Homo sapiens; for IC50: LPS-activated dTHP-1 cells, 24 h; for inhibition at 7.5 µM / inhibition at 15 µM: LPS 100 ng/mL for 24 h, dTHP-1 cells; for inhibition at 7.5 µM: read-out: IL-6 Production Inh % (7.5 μM); for inhibition at 15 µM: read-out: IL-6 Production Inh % (15 μM)
Protocol: as §2, §3

dTHP−1 cells = assay: Cell viability of dTHP-1 cells with or without LPS; assay type: cell-based, human; details: in % (unit assumed); for Cell viability of dTHP-1 cells, 5 μM, LPS / Cell viability of dTHP-1 cells, 5 μM, without LPS: 5 μM (so in the source)
Protocol: as §2, §1, §3

phospho-NF-κB p65 (S536) = assay: Western blot phospho-NF-κB p65 (S536) in dTHP-1 cells; assay type: cell-based, human; details: CAPE 10 µM; LPS-stimulated dTHP-1 cells
Protocol: Cells were lysed in the commercial RIPA Buffer (Thermo Fisher Scientific, Waltham, MA, USA) and then centrifuged at 14,000× g for 20 min. […] Antibodies used in this study were phospho-NF-κB p65 (S468; catalog no. 3039), phospho-NF-κB p65 (S536; catalog no. 3033), phospho-IKKα/β (catalog no. 2697), and IκB (catalog no. 9242) from Cell Signaling Technology (Beverly, MA, USA); GAPDH from ABclonal (catalog no. A10868; Woburn, MA, USA). The labeled signals were determined using an enhanced chemiluminescence system (UVP, Upland, CA, USA). The experiments were performed at least two times in triplicate, providing basically the same results.
The dTHP−1 cells were incubated with DMSO (0.1%), 19 (7.5 µM), or CAPE (10 µM) in medium for 3 h and then stimulated with or without LPS (0.1 µg/mL) for another 30 min. (A) The levels of phospho-NF-κB p65 (S536), phospho-IKKα/β, IκB, and GAPDH were determined by Western blot. The normalized (B) phospho-NF-κB p65 (S536), (C) phospho-IKKα/β, and (D) IκB levels were quantified. All data are expressed as mean ± SEM (n = 3); * p < 0.05 compared with the DMSO + LPS group.

Recombinant EGFR kinase = Recombinant EGFR kinase (Homo sapiens, UniProt P00533); assay: Recombinant EGFR kinase activity; assay type: biochemical; details: read-out: Recombinant EGFR Kinase Activity (%inh at 150 nM)
NF-κB p65 subunit = system: NF-κB p65 subunit; parameters: method as in PMID 28448872; details: covalent modification of the p65 subunit; read-out: IC50, interfering with the binding of NF-κB to its DNA recognition site; cited from earlier work
26S proteasome = system: 26S proteasome; parameters: method as in PMID 20420526; details: read-out: IC50, inhibition of the activity of the 26S proteasome; cited from earlier work
IKKα/β = system: IKKα/β; parameters: method as in PMID 10768472; details: read-out: IC50, targeting IKKα/β; cited from earlier work

Sequence of Recombinant EGFR kinase (P00533 25-1210): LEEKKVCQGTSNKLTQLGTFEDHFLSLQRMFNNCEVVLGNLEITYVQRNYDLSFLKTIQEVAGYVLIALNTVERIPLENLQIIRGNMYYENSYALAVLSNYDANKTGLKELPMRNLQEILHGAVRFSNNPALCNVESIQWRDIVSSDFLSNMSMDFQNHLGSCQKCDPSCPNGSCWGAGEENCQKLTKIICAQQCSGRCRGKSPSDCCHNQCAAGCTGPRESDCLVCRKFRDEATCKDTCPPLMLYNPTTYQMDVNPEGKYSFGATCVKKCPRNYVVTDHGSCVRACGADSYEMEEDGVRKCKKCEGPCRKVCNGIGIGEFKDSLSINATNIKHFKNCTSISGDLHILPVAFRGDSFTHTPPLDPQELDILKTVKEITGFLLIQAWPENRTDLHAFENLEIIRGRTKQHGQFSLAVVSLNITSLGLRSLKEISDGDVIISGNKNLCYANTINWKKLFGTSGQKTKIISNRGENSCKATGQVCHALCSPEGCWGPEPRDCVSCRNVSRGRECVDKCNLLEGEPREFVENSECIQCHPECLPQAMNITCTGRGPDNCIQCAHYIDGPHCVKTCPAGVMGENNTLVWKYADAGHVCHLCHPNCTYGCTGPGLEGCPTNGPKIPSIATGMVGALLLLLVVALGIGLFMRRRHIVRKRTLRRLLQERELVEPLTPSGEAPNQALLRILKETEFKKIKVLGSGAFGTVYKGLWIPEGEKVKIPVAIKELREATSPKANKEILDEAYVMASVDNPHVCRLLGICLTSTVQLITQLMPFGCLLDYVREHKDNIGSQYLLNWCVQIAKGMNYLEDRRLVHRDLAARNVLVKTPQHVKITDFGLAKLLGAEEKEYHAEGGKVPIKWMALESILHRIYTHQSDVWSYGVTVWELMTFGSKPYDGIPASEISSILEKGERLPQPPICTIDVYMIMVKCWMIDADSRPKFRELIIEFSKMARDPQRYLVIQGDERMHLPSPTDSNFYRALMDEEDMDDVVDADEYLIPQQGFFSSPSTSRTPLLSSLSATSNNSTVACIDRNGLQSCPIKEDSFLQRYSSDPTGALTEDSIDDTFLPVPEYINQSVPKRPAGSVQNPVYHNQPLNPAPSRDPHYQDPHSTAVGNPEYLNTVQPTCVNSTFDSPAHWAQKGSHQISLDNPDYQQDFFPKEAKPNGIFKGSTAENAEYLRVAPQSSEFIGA

Molecule: S=C(NCc1ccccc1)Nc1ccc2ncnc(Nc3cccc(Cl)c3)c2c1 [A, reference compound]
- inhibition at 10 µM (NF-κB [1]): 94.6 ± 1.5%
- IC50 (NF-κB [1]): 0.79 µM
- viability at 10 µM [2]: 72.4 ± 3.9%
- viability at 10 µM [3]: 81.7 ± 1.2%
- IC50 (NF-κB [4]): 3.7 µM

Molecule: Cc1ccc2nc(NCCN)c3ncc(C)n3c2c1 [BMS-345541]
- IC50 (IKKβ): 0.3 µM
- IC50 (IKKα): 4 µM
- IC50 (IL-1β production): ~5 µM
- IC50 (TNFα production [5]): ~5 µM
- inhibition of TNFα in mice after administration of LPS (TNFα): effective in the inhibition of TNFα in mice

Molecule: S=C(NCc1ccccc1)Nc1ccc2ncnc(Nc3ccc(Br)cc3)c2c1 [B]
- IC50 (NF-κB [4]): 3.8 µM
- IC50 (EGFR kinase): > 0.15 µM

Molecule: O=C(/C=C/c1ccc(O)c(O)c1)OCCc1ccccc1 [CAPE, caffeic acid phenethyl ester, reference compound]
- inhibition at 10 µM (NF-κB [1]): 72.8%
- IC50 (TNFα production [6]): 11.4 ± 0.21 µM
- IC50 (IL-6 production): 1.1 ± 0.36 µM
- Cell viability of dTHP-1 cells, 10 μM, LPS (dTHP−1 cells; CAPE 10 μM, LPS 100 ng/mL for 24 h): 52.2 ± 9.7
- Cell viability of dTHP-1 cells, 10 μM, without LPS (dTHP−1 cells; CAPE 10 μM, no LPS): 97.8 ± 0.41
- Phosphorylation of p65 at Ser536 (phospho-NF-κB p65 (S536)): slight reduction in the p65 phosphorylation

Molecule: CC(C)(C)c1ccc(Nc2ncnc3ccc(NC(=S)NCc4ccccc4)cc23)cc1 [C]
- IC50 (NF-κB [4]): 5.5 µM
- IC50 (EGFR kinase): > 0.15 µM

Molecule: S=C(Nc1ccc2ncnc(Nc3cccc(Cl)c3)c2c1)NC1CC1 [Compound 17, 1-(4-((3-Chlorophenyl)amino)quinazolin-6-yl)-3-cyclopropylthiourea]
- inhibition at 10 µM (NF-κB [1]): 47 ± 5.3%
- IC50 (NF-κB [1]): > 10 µM
- viability at 10 µM [2]: 103 ± 8.4%
- viability at 10 µM [3]: 102.6 ± 0.2%
- inhibition at 0.15 µM (Recombinant EGFR kinase): 36.5%
- inhibition at 7.5 µM (TNFα production [6]): 19 ± 8%
- inhibition at 15 µM (TNFα production [6]): 62 ± 4.2%
- IC50 (TNFα production [6]): 12.3 ± 1 µM
- inhibition at 7.5 µM (IL-6 production): 86 ± 2.3%
- inhibition at 15 µM (IL-6 production): 95.8 ± 0.33%
- IC50 (IL-6 production): 0.72 ± 0.17 µM
- Cell viability of dTHP-1 cells, 5 μM, LPS (dTHP−1 cells; LPS 100 ng/mL for 24 h): 62.0 ± 3.4
- Cell viability of dTHP-1 cells, 5 μM, without LPS (dTHP−1 cells; no LPS): 84.5 ± 4.8
- Cell viability of dTHP-1 cells, 7.5 μM, without LPS (dTHP−1 cells; no LPS): 94.3 ± 1.9
- melting point: 219.1 to 220.2 °C

Molecule: S=C(NCC1CC1)Nc1ccc2ncnc(Nc3cccc(Cl)c3)c2c1 [Compound 18, 1-(4-((3-Chlorophenyl)amino)quinazolin-6-yl)-3-(cyclopropylmethyl)thiourea]
- inhibition at 10 µM (NF-κB [1]): 89.9 ± 1.5%
- IC50 (NF-κB [1]): 2.8 µM
- viability at 10 µM [2]: 75.7 ± 3.8%
- viability at 10 µM [3]: 79.1 ± 0.6%
- inhibition at 0.15 µM (Recombinant EGFR kinase): 59%
- inhibition at 7.5 µM (TNFα production [6]): 31 ± 4.5%
- inhibition at 15 µM (TNFα production [6]): 65.9 ± 7.9%
- IC50 (TNFα production [6]): 11.5 ± 1.7 µM
- inhibition at 7.5 µM (IL-6 production): 78.9 ± 14.8%
- inhibition at 15 µM (IL-6 production): 89.4 ± 7%
- IC50 (IL-6 production): 1.1 ± 0.36 µM
- Cell viability of dTHP-1 cells, 5 μM, LPS (dTHP−1 cells; LPS 100 ng/mL for 24 h): 11.2 ± 3.3
- Cell viability of dTHP-1 cells, 5 μM, without LPS (dTHP−1 cells; no LPS): 87.6 ± 2.5
- Cell viability of dTHP-1 cells, 7.5 μM, LPS (dTHP−1 cells; LPS 100 ng/mL for 24 h): 34.9 ± 1.6
- Cell viability of dTHP-1 cells, 7.5 μM, without LPS (dTHP−1 cells; no LPS): 82.7 ± 10.3
- melting point: 226.3 to 228 °C

Molecule: CC(C)(C)NC(=S)Nc1ccc2ncnc(Nc3cccc(Cl)c3)c2c1 [Compound 20, 1-(tert-Butyl)-3-(4-((3-chlorophenyl)amino)quinazolin-6-yl)thiourea]
- inhibition at 10 µM (NF-κB [1]): 75.7 ± 3.1%
- IC50 (NF-κB [1]): 2 µM
- viability at 10 µM [2]: 99.7 ± 8%
- viability at 10 µM [3]: 98.1 ± 3.1%
- inhibition at 0.15 µM (Recombinant EGFR kinase): 1.5%
- inhibition at 7.5 µM (TNFα production [6]): 57.4 ± 7.2%
- inhibition at 15 µM (TNFα production [6]): 89.9 ± 0.88%
- IC50 (TNFα production [6]): 5.1 ± 0.43 µM
- inhibition at 7.5 µM (IL-6 production): 91.8 ± 3.5%
- inhibition at 15 µM (IL-6 production): 98.7 ± 1.2%
- IC50 (IL-6 production): 0.94 ± 0.11 µM
- Cell viability of dTHP-1 cells, 5 μM, LPS (dTHP−1 cells; LPS 100 ng/mL for 24 h): 12.5 ± 0.23
- Cell viability of dTHP-1 cells, 5 μM, without LPS (dTHP−1 cells; no LPS): 42.5 ± 10.6
- Cell viability of dTHP-1 cells, 7.5 μM, LPS (dTHP−1 cells; LPS 100 ng/mL for 24 h): 32.5 ± 0.89
- Cell viability of dTHP-1 cells, 7.5 μM, without LPS (dTHP−1 cells; no LPS): 78.0 ± 0.09
- melting point: 177.5 to 179.4 °C

Molecule: C=C1C(=O)O[C@@H]2C[C@@H](C)[C@@H]3C=CC(=O)[C@@]3(C)[C@@H](O)[C@H]12 [helenalin]
- IC50 (NF-κB p65 subunit): 5 µM

Molecule: C[C@@]12OC(=O)[C@]1([C@@H](O)[C@@H]1C=CCCC1)NC(=O)[C@@H]2CCCl [salinosporamide A]
- IC50 (26S proteasome): 0.0013 µM

Molecule: cacospongiolide B
- IC50 (IKKα/β): 0.26 µM
